Assay [1] concerns HeLa wt cells. The assay is described as follows: Immunofluorescence of GRASP55 and LC3. The note with it: 6 h; BafA1 10 nM. The assay is classed as cell-based. The protocol: (§1) For immunofluorescence microscopy, HeLa cells were seeded on glass coverslips in 24-well plates. After treatment, cells were fixed in 4% paraformaldehyde for 15 min on ice, quenched with 50 mM NH4Cl for 15 min and permeabilized with 50 µg/mL digitonin (Sigma-Aldrich, St. Louis, MO, USA, #D141) for 5 min. Fixed samples were blocked with 3% BSA (Roth, Karlsruhe, Germany, #8076) for 30 min or overnight and incubated with primary antibodies diluted in 3% BSA for 2 h. Samples were then washed three times with DPBS, incubated with the appropriate secondary antibodies diluted in 3% BSA for 30 min and washed three times with DPBS. Afterwards, cells were embedded in ProLong Glass Antifade Mountant (Thermo Fisher Scientific, Waltham, MA, USA, #P36980) containing 1 µg/mL DAPI (Roth, Karlsruhe, Germany, #6335.1). Images were recorded with an Axio Observer 7 fluorescence microscope (Carl Zeiss Microscopy, Oberkochen, Germany) using a 40x/1,4 Oil DIC M27 Plan-Apochromat objective (Carl Zeiss Microscopy, Oberkochen, Germany) and an ApoTome 2 (Carl Zeiss Microscopy, Oberkochen, Germany).

Assay [2] has as its system HeLa wt cells. Description: Immunofluorescence of LC3 and LAMP1. The assay is classed as cell-based. The settings on record: 2 h; prodigiosin 100 nM, BafA1 10 nM. The protocol:
as §1

With `CO/C1=C\C(C)=C\[C@@H](C)[C@@H](O)[C@@H](C)C/C(C)=C/C=C/[C@H](OC)[C@@H]([C@@H](C)[C@@H](O)[C@H](C)[C@@]2(O)C[C@@H](O)[C@H](C)[C@@H](C(C)C)O2)OC1=O` [BafA1, bafilomycin A1, reference compound], in the assay on HeLa wt cells [1], the “co-localization of LC3 and GRASP55” value was “no significant increase”; the “number of LC3 dots” value is on record as “enriched”. In the assay on HeLa wt cells [2], the LC3-positive structures entry was “only minor”; the “co-localization of LC3- and LAMP1-positive structures” value is recorded as “comparatively low”.

The record behind these values is article PMC10552397 (Cell Communication and Signaling : CCS, 2023).
